Here are results for 10 compounds from patent publication US12649750B2, “Macrocyclic compounds, compositions, and methods of using thereof” (Sionna Therapeutics Inc., priority 2022, dated 2026).

In one assay the target is T1, NBD1 (Homo sapiens, UniProt P13569).
T1 construct: Purified recombinant NBD1 was produced using previously described methods; made in house
Nature of the assay: Aggregation analysis using differential static light scattering (DSLS), thermal stability of NBD1 (ΔTagg). It counts as binding. The settings on record: ΔTagg versus DMSO control, NBD1 0.2 mg/ml. The essentials: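 Differential static light scattering read from 25° C. to 70° C. every 0.5° C., ramp 1° C./min, on recombinant NBD1 (0.2 mg/ml; Tris/NaCl/MgCl2 buffer with 2 mM ATP, 2 mM DTT, pH 7.6, 1% glycerol) plus compound. Reported ΔTagg subtracts averaged DMSO Tagg from inflection-point Tagg; categories A ≤5, B >5-10, C >10-25° C.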

In a further assay the target is T2, CFTR (Homo sapiens, UniProt P13569, DEL508-508).
T2 construct: Primary human bronchial epithelial cells from a ΔF508 homozygous CF donor; host or cells: primary human bronchial epithelial cells (CF-HBE), ΔF508 homozygous donor
T2 sequence (P13569 with tags, fused parts or gaps DEL508-508): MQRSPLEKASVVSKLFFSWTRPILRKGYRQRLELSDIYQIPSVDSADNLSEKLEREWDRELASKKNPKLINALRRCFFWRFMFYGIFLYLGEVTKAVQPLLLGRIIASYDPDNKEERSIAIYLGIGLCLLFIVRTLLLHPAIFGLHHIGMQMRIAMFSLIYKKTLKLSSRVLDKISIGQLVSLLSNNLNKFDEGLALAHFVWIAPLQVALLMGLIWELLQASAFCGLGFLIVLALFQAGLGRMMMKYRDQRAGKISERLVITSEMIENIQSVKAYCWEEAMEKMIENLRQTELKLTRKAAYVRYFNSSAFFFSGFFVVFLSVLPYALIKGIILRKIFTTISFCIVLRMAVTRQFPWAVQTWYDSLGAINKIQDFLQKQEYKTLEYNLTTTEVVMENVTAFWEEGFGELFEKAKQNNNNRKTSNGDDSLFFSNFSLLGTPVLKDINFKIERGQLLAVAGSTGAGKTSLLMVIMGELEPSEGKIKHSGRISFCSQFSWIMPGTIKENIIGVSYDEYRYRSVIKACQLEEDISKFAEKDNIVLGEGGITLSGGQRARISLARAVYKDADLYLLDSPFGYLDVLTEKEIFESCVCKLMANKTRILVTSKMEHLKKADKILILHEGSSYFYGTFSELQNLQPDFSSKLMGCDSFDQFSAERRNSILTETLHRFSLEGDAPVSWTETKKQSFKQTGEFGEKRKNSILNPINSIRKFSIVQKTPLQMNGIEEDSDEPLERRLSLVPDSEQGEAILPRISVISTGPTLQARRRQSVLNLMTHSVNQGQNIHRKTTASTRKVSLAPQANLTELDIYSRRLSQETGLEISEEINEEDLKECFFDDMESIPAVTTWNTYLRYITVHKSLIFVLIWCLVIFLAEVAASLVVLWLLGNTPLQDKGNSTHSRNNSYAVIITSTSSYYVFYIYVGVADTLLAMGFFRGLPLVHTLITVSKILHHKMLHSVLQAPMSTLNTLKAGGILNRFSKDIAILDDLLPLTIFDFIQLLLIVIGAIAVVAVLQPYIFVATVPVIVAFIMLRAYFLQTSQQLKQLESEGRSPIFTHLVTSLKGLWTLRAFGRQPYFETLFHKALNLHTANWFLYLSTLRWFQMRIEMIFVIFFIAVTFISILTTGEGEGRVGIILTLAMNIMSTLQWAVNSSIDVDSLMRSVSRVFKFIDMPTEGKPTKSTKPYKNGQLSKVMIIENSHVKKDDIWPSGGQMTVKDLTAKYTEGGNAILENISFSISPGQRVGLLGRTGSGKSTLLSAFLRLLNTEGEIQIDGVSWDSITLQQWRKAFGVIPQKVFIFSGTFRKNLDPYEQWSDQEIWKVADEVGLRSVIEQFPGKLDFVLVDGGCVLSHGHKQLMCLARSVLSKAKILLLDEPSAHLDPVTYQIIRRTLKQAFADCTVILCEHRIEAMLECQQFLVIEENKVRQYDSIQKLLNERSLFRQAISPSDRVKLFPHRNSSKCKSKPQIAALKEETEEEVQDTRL
Nature of the assay: TECC24 AUC fold over DMSO @10 μM, CFTR-mediated transepithelial chloride transport in CF-HBE cells. It counts as cell-based. The settings on record: test agent AUC divided by DMSO vehicle AUC, primary CF-HBE cells, ΔF508 homozygous donor, 48 hours incubation. On the procedure: Example 387. TECC24 AUC Fold Over DMSO @10 μM
The effects of a test agent on CFTR-mediated transepithelial chloride transport is measured using TECC24 recording analysis. Test agents are solubilized in DMSO. Solubilized test agents are mixed with incubation medium containing DMEM/F12, Ultroser G (2%; Crescent Chemical, catalog #67042), Hyclone Fetal Clone II (2%; GE Healthcare, catalog #SH30066.02), bovine brain extract (0.25%; Lonza, catalog #CC-4098), insulin (2.5 μg/mL), IL-13 (10 ng/mL), hydrocortisone (20 nM), transferrin (2.5 μg/mL), triiodothyronine (500 nM), ethanolamine (250 nM), epinephrine (1.5 μM), phosphoethanolamine (250 nM), and retinoic acid (10 nM). Primary human bronchial epithelial cells from a ΔF508 homozygous CF donor (CF-HBE cells; from University of North Carolina Cystic Fibrosis Tissue Procurement Center), grown on Transwell HTS 24-well cell culture inserts (Costar, catalog #3378), are exposed to test agents or controls dissolved in incubation medium. The CF-HBE cells are cultured at 36.5° C. for 48 hours before TECC24 recordings are performed in the presence or absence of test agent, a positive control or vehicle (DMSO).
Following incubation, the transwell cell culture inserts containing the test agent or control-treated CF-HBE cells are loaded onto a TECC24 apparatus (TECC v7 or MTECC v2; EP Design) to record the transepithelial voltage (VT) and resistance (TEER) using 4 AgCl electrodes per well configured in current-clamp mode. The apical and basolateral bath solutions both contain (in mM) 140 NaCl, 5 KCl, 2 CaCl2, 1 MgCl2, 10 Hepes, and 10 glucose (adjusted to pH 7.4 with NaOH). To inhibit basal Na+ absorption, the ENaC inhibitor benzamil (10 μM) is added to the bath. Then, the adenylate cyclase activator, forskolin (10 μM), is added to the bath to activate CFTR. The forskolin-stimulated Cl— transport is halted by addition of CFTR inhibitor-172 (20 μM) to the bath at the end of the experiment to confirm specificity. VT and TEER recordings are digitally acquired at routine intervals using TECC or MTECC software (EP Design). VT and TEER are transformed into equivalent transepithelial Cl— current (IEQ), and the Area Under the Curve (AUC) of the IEQ time course between forskolin and CFTR inhibitor-172 addition is generated using Excel (Microsoft). Efficacy is expressed as the ratio of the test agent AUC divided by vehicle AUC. EC50s based on AUC are generated using the non-linear regression log(agonist) vs. response function in Prism software (Graphpad) with HillSlope fixed=1.
If a test agent increases the AUC of the forskolin-stimulated IEQ relative to vehicle in CF-HBE cells, and this increase is inhibited by CFTR inhibitor-172, then the test agent is considered a CFTR corrector. TECC assay efficacy is expressed as the ratio of the test agent AUC divided by DMSO vehicle AUC. As set forth in Table 2 below, a TECC value less than 12 is marked “A”; a value between 12-20 is marked “B”; a value between 20 and 80 is marked “C”. […]

T1 sequence (P13569 423-646 limits assumed): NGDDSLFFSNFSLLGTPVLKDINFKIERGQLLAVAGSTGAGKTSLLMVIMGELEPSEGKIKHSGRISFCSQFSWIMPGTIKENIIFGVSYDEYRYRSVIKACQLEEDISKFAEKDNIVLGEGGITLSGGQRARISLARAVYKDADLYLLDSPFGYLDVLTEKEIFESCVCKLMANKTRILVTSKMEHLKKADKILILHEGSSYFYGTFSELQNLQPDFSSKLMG

`C[C@@H](Cc1cccc([C@@]2(C)CCCC(C)(C)CS(=O)(=O)CCc3c(c(F)cc4[nH]ccc34)C(=O)c3ccnc(c3)-c3nc2nn3C)c1)C(=O)O` (mixture of isomers) [Compound 254, (2S)-2-Methyl-3-[3-[rac-(6R)-22-fluoro-3,6,10,10-tetramethyl-12,12,24-trioxo-12λ6-thia-3,4,19,28,30-pentazapentacyclo[23.3.1.12,5.015,23.016,20]triaconta-1(29),2(30),4,15,17,20,22,25,27-nonaen-6-yl]phenyl]propanoic Acid]: the “DSLS 3D (100 μM ΔT)” value at NBD1 is “C (a value greater than 10 °C and less than or equal to 25 °C is marked “C”)”. Further, the “TECC (AUC, 10 μM)” value on CFTR is given as “B (a value between 12-20 is marked “B”)”.

Regarding `CC1(C)CCCC(c2cccc(CCC(=O)O)c2)n2ncc(C#N)c2-c2cc(ccc2F)Oc2c(F)cc3[nH]ccc3c2CCS(=O)(=O)C1` (racemic) [Compound 22A, 3-[3-(3-cyano-23,29-difluoro-11,11-dimethyl-13,13-dioxo-25-oxa-13lambda6-thia-5,6,20-triazapentacyclo[24.3.1.02,6.016,24.017,21]triaconta-1(30),2,4,16,18,21,23,26,28-nonaen-7-yl)phenyl]propanoic acid], the “DSLS 3D (100 μM ΔT)” value on NBD1 was “A (an ΔTagg value less than or equal to 5 °C is marked “A”)”. On CFTR, the “TECC (AUC, 10 μM)” value is “A (a TECC value less than 12 is marked “A”)”.

For the compound `Cn1nc2nc1-c1cc(ccc1F)Oc1c(F)cc3[nH]ccc3c1CCS(=O)(=O)CC(C)(C)CCCC2(C)c1cccc(CCC(=O)O)c1` (racemic) [Compound 56, 3-[3-(22,28-Difluoro-3,6,10,10-tetramethyl-12,12-dioxo-24-oxa-12lambda6-thia-3,4,19,30-tetrazapentacyclo[23.3.1.12,5.015,23.016,20]triaconta-1(29),2(30),4,15,17,20,22,25,27-nonaen-6-yl)phenyl]propanoic acid], the “DSLS 3D (100 μM ΔT)” value at NBD1 was “C (a value greater than 10 °C and less than or equal to 25 °C is marked “C”)”. On CFTR, the “TECC (AUC, 10 μM)” value is “A (a TECC value less than 12 is marked “A”)”.

Consider `Cc1cn2nc1-c1cc(ccc1F)Oc1c(F)cc3[nH]ccc3c1CCS(=O)(=O)CC(C)(C)CCCC2c1cccc(CCC(=O)O)c1` (racemic) [Compound 66, 3-[3-(22,28-Difluoro-3,10,10-trimethyl-12,12-dioxo-24-oxa-12λ6-thia-5,19,30-triazapentacyclo[23.3.1.12,5.015,23.016,20]triaconta-1(29),2(30),3,15,17,20,22,25,27-nonaen-6-yl)phenyl]propanoic Acid], for which the “DSLS 3D (100 μM ΔT)” value at NBD1 is “C (a value greater than 10 °C and less than or equal to 25 °C is marked “C”)”. Further, at CFTR, the “TECC (AUC, 10 μM)” value was “B (a value between 12-20 is marked “B”)”.

As for `Cn1nc2nc1-c1cc(ccc1F)Oc1c(F)cc3[nH]ccc3c1CCS(=O)(=O)/C=C(\F)C(C)(C)CCC2(C)c1cccc(CCC(=O)O)c1` (racemic) [Compound 94, 3-[3-[(10Z)-10,22,28-Trifluoro-3,6,9,9-tetramethyl-12,12-dioxo-24-oxa-12lambda6-thia-3,4,19,30-tetrazapentacyclo-[23.3.1.12,5.015,23.016,20]triaconta-1(29),2(30),4,10,15,17,20,22,25,27-decaen-6-yl]phenyl]propanoic Acid], at NBD1, the “DSLS 3D (100 μM ΔT)” value was “A (an ΔTagg value less than or equal to 5 °C is marked “A”)”. Moreover, at CFTR, the “TECC (AUC, 10 μM)” value was “A (a TECC value less than 12 is marked “A”)”.

For `Cn1nc2nc1-c1cc(ccc1F)Cc1c(F)cc3[nH]ccc3c1CCS(=O)(=O)CC(C)(C)CCCC2(C)c1cccc(/C=C/C(=O)O)c1` (racemic) [Compound 167, (E)-3-[3-(22,28-Difluoro-3,6,10,10-tetramethyl-12,12-dioxo-12λ6-thia-3,4,19,30-tetrazapentacyclo[23.3.1.12,5.015,23.016,20]triaconta-1(29),2(30),4,15,17,20,22,25,27-nonaen-6-yl)phenyl]prop-2-enoic Acid], the “DSLS 3D (100 μM ΔT)” value at NBD1 is “C (a value greater than 10 °C and less than or equal to 25 °C is marked “C”)”. Besides, the “TECC (AUC, 10 μM)” value at CFTR was “A (a TECC value less than 12 is marked “A”)”.

In the case of `Cn1nc2nc1-c1cc(ccc1F)Oc1c(F)cc3[nH]ccc3c1CCS(=O)(=O)CC(C)(C)CCCC2(C)c1cccc(/C=C2\NC(=O)NC2=O)c1` (racemic) [Compound 174, (5Z)-5-[[3-(22,28-Difluoro-3,6,10,10-tetramethyl-12,12-dioxo-24-oxa-12λ6-thia-3,4,19,30-tetrazapentacyclo[23.3.1.12,5.015,23.016,20]-triaconta-1(29),2(30),4,15,17,20,22,25,27-nonaen-6-yl)phenyl]methylene]imidazolidine-2,4-dione], the “DSLS 3D (100 μM ΔT)” value at NBD1 is “C (a value greater than 10 °C and less than or equal to 25 °C is marked “C”)”. In addition, on CFTR, the “TECC (AUC, 10 μM)” value is on record as “A (a TECC value less than 12 is marked “A”)”.

`Cn1nc2nc1-c1cc(ccn1)Oc1c(F)cc3[nH]ccc3c1CCS(=O)(=O)CC(C)(C)CCC[C@]2(C)c1cccc(CCC(=O)O)c1` (racemic) [Compound 228, 3-[3-[rac-(6R)-22-fluoro-3,6,10,10-tetramethyl-12,12-dioxo-24-oxa-12λ6-thia-3,4,19,28,30-pentazapentacyclo[23.3.1.12,5.015,23.016,20]triaconta-1(29),2(30),4,15,17,20,22,25,27-nonaen-6-yl]phenyl]propanoic acid]: the “DSLS 3D (100 μM ΔT)” value on NBD1 was “C (a value greater than 10 °C and less than or equal to 25 °C is marked “C”)”. Moreover, on CFTR, the “TECC (AUC, 10 μM)” value is “C (a value between 20 and 80 is marked “C”)”.

Turning to `C[C@@H](Cc1cccc([C@@]2(C)CCCC(C)(C)CS(=O)(=O)CCc3c(c(F)c(F)c4[nH]ccc34)Sc3ccc(F)c(c3)-c3nc2nn3C)c1)C(=O)O` (racemic) [Compound 259, (2S)-2-methyl-3-[3-[(6R)-21,22,28-trifluoro-3,6,10,10-tetramethyl-12,12-dioxo-12λ6,24-dithia-3,4,19,30-tetrazapentacyclo[23.3.1.12,5.015,23.016,20]triaconta-1(29),2(30),4,15,17,20,22,25,27-nonaen-6-yl]phenyl]propanoic Acid], at NBD1, the “DSLS 3D (100 μM ΔT)” value is “C (a value greater than 10 °C and less than or equal to 25 °C is marked “C”)”. Moreover, the “TECC (AUC, 10 μM)” value on CFTR is “C (a value between 20 and 80 is marked “C”)”.

With `Cn1nc2nc1-c1cc(ccn1)Cc1c(F)cc3[nH]ccc3c1CCS(=O)(=O)CC(C)(C)CCC[C@]2(C)c1cccc(CC(C)(C)C(=O)O)c1` (racemic) [Compound 295, 2,2-dimethyl-3-[3-[rac-(6R)-22-fluoro-3,6,10,10-tetramethyl-12,12-dioxo-12λ6-thia-3,4,19,28,30-pentazapentacyclo[23.3.1.12,5.015,23.016,20]triaconta-1(29),2(30),4,15,17,20,22,25,27-nonaen-6-yl]phenyl]propanoic Acid], the “DSLS 3D (100 μM ΔT)” value at NBD1 is “B (a value above 5 °C and less than or equal to 10 °C is marked “B”)”. Besides, the “TECC (AUC, 10 μM)” value at CFTR is on record as “B (a value between 12-20 is marked “B”)”.
